According to patent US10344060B2 (priority 2013, dated 2019):
“And” between values parts separate entries of the source, which are not always exact repeats. Equal entries are not always repeated.

target: T1, hNav1.7 (Homo sapiens, UniProt Q15858); assay: cell-based; settings: ratio of IonWorks Quattro IC50 values, Nav1.4 over Nav1.7
T1 sequence (Q15858 whole entry): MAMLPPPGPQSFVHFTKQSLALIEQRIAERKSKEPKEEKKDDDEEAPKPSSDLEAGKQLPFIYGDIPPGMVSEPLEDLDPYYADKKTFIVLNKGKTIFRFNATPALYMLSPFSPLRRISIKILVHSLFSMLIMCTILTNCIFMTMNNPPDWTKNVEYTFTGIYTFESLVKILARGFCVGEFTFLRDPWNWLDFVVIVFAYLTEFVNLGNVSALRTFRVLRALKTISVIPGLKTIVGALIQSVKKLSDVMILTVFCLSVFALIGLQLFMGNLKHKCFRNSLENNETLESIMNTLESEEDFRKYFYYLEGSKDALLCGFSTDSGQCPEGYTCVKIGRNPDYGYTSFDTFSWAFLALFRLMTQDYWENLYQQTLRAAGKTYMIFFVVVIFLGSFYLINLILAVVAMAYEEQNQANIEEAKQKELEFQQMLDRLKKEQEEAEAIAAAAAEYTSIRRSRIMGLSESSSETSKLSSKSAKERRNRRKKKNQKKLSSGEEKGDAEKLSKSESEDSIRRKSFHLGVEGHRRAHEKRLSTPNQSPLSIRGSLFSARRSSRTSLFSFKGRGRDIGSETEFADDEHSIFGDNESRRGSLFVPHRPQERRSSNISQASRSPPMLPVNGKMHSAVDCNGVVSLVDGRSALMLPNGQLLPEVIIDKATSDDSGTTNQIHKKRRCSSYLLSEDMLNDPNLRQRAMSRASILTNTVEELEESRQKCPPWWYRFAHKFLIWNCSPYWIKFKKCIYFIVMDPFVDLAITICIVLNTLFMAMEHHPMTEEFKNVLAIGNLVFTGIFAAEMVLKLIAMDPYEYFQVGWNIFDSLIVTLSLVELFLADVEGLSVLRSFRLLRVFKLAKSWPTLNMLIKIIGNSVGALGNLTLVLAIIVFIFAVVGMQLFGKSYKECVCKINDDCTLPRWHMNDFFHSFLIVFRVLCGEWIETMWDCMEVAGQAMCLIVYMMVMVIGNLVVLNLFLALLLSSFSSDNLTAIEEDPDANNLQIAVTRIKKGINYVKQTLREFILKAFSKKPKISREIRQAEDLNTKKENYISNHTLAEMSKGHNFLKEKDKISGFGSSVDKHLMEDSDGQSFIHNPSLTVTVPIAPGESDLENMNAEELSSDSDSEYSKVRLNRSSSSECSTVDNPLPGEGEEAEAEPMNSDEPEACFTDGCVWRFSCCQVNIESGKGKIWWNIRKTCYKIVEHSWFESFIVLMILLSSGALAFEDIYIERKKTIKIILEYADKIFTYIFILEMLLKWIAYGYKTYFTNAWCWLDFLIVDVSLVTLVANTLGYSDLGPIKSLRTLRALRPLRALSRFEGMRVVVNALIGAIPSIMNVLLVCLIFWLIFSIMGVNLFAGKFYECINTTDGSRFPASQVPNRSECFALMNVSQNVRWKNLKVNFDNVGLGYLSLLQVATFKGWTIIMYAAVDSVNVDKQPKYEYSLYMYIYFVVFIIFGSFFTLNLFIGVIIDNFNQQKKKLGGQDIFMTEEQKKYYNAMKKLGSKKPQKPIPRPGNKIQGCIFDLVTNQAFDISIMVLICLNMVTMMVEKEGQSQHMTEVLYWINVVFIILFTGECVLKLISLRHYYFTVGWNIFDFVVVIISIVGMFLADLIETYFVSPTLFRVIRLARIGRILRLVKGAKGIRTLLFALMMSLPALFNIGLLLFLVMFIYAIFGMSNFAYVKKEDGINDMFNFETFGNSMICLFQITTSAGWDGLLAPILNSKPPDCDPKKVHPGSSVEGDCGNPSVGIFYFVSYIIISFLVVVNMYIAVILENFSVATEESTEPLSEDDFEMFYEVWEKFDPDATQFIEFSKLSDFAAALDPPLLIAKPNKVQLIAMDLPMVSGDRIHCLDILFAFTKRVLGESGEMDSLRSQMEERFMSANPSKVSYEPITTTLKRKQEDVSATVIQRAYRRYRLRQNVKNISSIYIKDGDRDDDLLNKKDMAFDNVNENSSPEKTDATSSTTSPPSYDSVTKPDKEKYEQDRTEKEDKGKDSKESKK

Compound	Nav1.4/Nav1.7
CC[C@H](C)[C@H](NC(=O)[C@@H](NC(=O)[C@H](CCCCN)NC(=O)[C@H](CCCNC(=N)N)NC(=O)[C@@H]1CSSC[C@@H]2NC(=O)[C@H](C)NC(=O)[C@H](CCCNC(=N)N)NC(=O)[C@H](CCCCN)NC(=O)[C@H](CO)NC(=O)[C@H](CC(=O)O)NC(=O)[C@@H]3CSSC[C@H](NC(=O)[C@H](CC(=O)O)NC(=O)[C@H](CC(C)C)NC(=O)CNC(=O)[C@H](CCC(=O)O)NC(=O)[C@H](CSSC[C@H](NC(=O)[C@@H](N)Cc4ccc(O)cc4)C(=O)N[C@@H](CCC(N)=O)C(=O)N[C@@H](CCCCN)C(=O)N[C@@H](Cc4c[nH]c5ccccc45)C(=O)N[C@@H](CCSC)C(=O)N[C@@H](Cc4c[nH]c5ccccc45)C(=O)N[C@@H]([C@@H](C)O)C(=O)N3)NC2=O)C(=O)N[C@@H](CCCCN)C(=O)N[C@@H](CC(C)C)C(=O)N[C@@H](Cc2c[nH]c3ccccc23)C(=O)N1)[C@@H](C)CC)C(N)=O [compound 115]	53
CC[C@H](C)[C@H](NC(=O)[C@@H](NC(=O)[C@H](CCCCN)NC(=O)[C@H](CCCNC(=N)N)NC(=O)[C@@H]1CSSC[C@@H]2NC(=O)[C@H](C)NC(=O)[C@H](CCCNC(=N)N)NC(=O)[C@H](CCCCN)NC(=O)[C@H](CO)NC(=O)[C@H](CC(=O)O)NC(=O)[C@@H]3CSSC[C@H](NC(=O)CNC(=O)[C@H](CC(C)C)NC(=O)CNC(=O)[C@H](CCC(=O)O)NC(=O)[C@H](CSSC[C@H](NC(=O)[C@@H](N)Cc4ccc(O)cc4)C(=O)N[C@@H](CCC(N)=O)C(=O)N[C@@H](CCCCN)C(=O)N[C@@H](Cc4c[nH]c5ccccc45)C(=O)N[C@@H](CCSC)C(=O)N[C@@H](Cc4c[nH]c5ccccc45)C(=O)N[C@@H]([C@@H](C)O)C(=O)N3)NC2=O)C(=O)N[C@@H](CCCCN)C(=O)N[C@@H](CC(C)C)C(=O)N[C@@H](Cc2c[nH]c3ccccc23)C(=O)N1)[C@@H](C)CC)C(N)=O [compound 121]	29
CCC[C@@H]1NC(=O)[C@H](CC(C)C)NC(=O)CNC(=O)[C@H](CCC(=O)O)NC(=O)[C@@H]2CSSC[C@H](NC(=O)[C@@H](N)Cc3ccc(O)cc3)C(=O)N[C@@H](CCC(N)=O)C(=O)N[C@@H](CCCCN)C(=O)N[C@@H](Cc3c[nH]c4ccccc34)C(=O)N[C@@H](CCSC)C(=O)N[C@@H](Cc3c[nH]c4ccccc34)C(=O)N[C@@H]([C@@H](C)O)C(=O)N[C@H]3CSSC[C@H](NC1=O)C(=O)N[C@@H](CCCCN)C(=O)N[C@@H](CC(C)C)C(=O)N[C@@H](Cc1c[nH]c4ccccc14)C(=O)N[C@H](C(=O)N[C@@H](CCCNC(=N)N)C(=O)N[C@@H](CCCCN)C(=O)N[C@H](C(=O)N[C@H](C(N)=O)[C@@H](C)CC)[C@@H](C)CC)CSSC[C@H](NC(=O)[C@H](C)NC(=O)[C@H](CCCNC(=N)N)NC(=O)[C@H](CCCCN)NC(=O)[C@H](CO)NC(=O)[C@H](CC(=O)O)NC3=O)C(=O)N2 [compound 123]	19
CC[C@H](C)[C@H](NC(=O)[C@@H](NC(=O)[C@H](CCCCN)NC(=O)[C@H](CCCNC(=N)N)NC(=O)[C@@H]1CSSC[C@@H]2NC(=O)[C@H](C)NC(=O)[C@H](CCCNC(=N)N)NC(=O)[C@H](CCCCN)NC(=O)[C@H](CO)NC(=O)[C@H](CC(=O)O)NC(=O)[C@@H]3CSSC[C@H](NC(=O)[C@H](CO)NC(=O)[C@H](CC(C)C)NC(=O)CNC(=O)[C@H](CCC(=O)O)NC(=O)[C@H](CSSC[C@H](NC(=O)[C@@H](N)Cc4ccc(O)cc4)C(=O)N[C@@H](CCC(N)=O)C(=O)N[C@@H](CCCCN)C(=O)N[C@@H](Cc4c[nH]c5ccccc45)C(=O)N[C@@H](CCSC)C(=O)N[C@@H](Cc4c[nH]c5ccccc45)C(=O)N[C@@H]([C@@H](C)O)C(=O)N3)NC2=O)C(=O)N[C@@H](CCCCN)C(=O)N[C@@H](CC(C)C)C(=O)N[C@@H](Cc2c[nH]c3ccccc23)C(=O)N1)[C@@H](C)CC)C(N)=O [compound 125]	17
CC[C@H](C)[C@H](NC(=O)[C@H](CCC(=O)O)NC(=O)[C@H](CCCCN)NC(=O)[C@H](CCCNC(=N)N)NC(=O)[C@@H]1CSSC[C@@H]2NC(=O)[C@H](C)NC(=O)[C@H](CCCNC(=N)N)NC(=O)[C@H](CCCCN)NC(=O)[C@H](CO)NC(=O)[C@H](CC(=O)O)NC(=O)[C@@H]3CSSC[C@H](NC(=O)[C@H](CCC(=O)O)NC(=O)[C@H](CC(C)C)NC(=O)CNC(=O)[C@H](CCC(=O)O)NC(=O)[C@H](CSSC[C@H](NC(=O)[C@@H](N)Cc4ccc(O)cc4)C(=O)N[C@@H](CCC(N)=O)C(=O)N[C@@H](CCCCN)C(=O)N[C@@H](Cc4c[nH]c5ccccc45)C(=O)N[C@@H](CCSC)C(=O)N[C@@H](Cc4c[nH]c5ccccc45)C(=O)N[C@@H]([C@@H](C)O)C(=O)N3)NC2=O)C(=O)N[C@@H](CCCCN)C(=O)N[C@@H](CC(C)C)C(=O)N[C@@H](Cc2c[nH]c3ccccc23)C(=O)N1)C(N)=O [compound 126]	5 and 3
CC[C@H](C)[C@H](NC(=O)[C@H](Cc1ccc(C(=O)O)cc1)NC(=O)[C@H](CCCCN)NC(=O)[C@H](CCCNC(=N)N)NC(=O)[C@@H]1CSSC[C@@H]2NC(=O)[C@H](C)NC(=O)[C@H](CCCNC(=N)N)NC(=O)[C@H](CCCCN)NC(=O)[C@H](CO)NC(=O)[C@H](CC(=O)O)NC(=O)[C@@H]3CSSC[C@H](NC(=O)[C@H](CCC(=O)O)NC(=O)[C@H](CC(C)C)NC(=O)CNC(=O)[C@H](CCC(=O)O)NC(=O)[C@H](CSSC[C@H](NC(=O)[C@@H](N)Cc4ccc(O)cc4)C(=O)N[C@@H](CCC(N)=O)C(=O)N[C@@H](CCCCN)C(=O)N[C@@H](Cc4c[nH]c5ccccc45)C(=O)N[C@@H](CCSC)C(=O)N[C@@H](Cc4c[nH]c5ccccc45)C(=O)N[C@@H]([C@@H](C)O)C(=O)N3)NC2=O)C(=O)N[C@@H](CCCCN)C(=O)N[C@@H](CC(C)C)C(=O)N[C@@H](Cc2c[nH]c3ccccc23)C(=O)N1)C(N)=O [compound 127]	2
CC[C@H](C)[C@H](NC(=O)[C@H](CC(=O)O)NC(=O)[C@H](CCCCN)NC(=O)[C@H](CCCNC(=N)N)NC(=O)[C@@H]1CSSC[C@@H]2NC(=O)[C@H](C)NC(=O)[C@H](CCCNC(=N)N)NC(=O)[C@H](CCCCN)NC(=O)[C@H](CO)NC(=O)[C@H](CC(=O)O)NC(=O)[C@@H]3CSSC[C@H](NC(=O)[C@H](CCC(=O)O)NC(=O)[C@H](CC(C)C)NC(=O)CNC(=O)[C@H](CCC(=O)O)NC(=O)[C@H](CSSC[C@H](NC(=O)[C@@H](N)Cc4ccc(O)cc4)C(=O)N[C@@H](CCC(N)=O)C(=O)N[C@@H](CCCCN)C(=O)N[C@@H](Cc4c[nH]c5ccccc45)C(=O)N[C@@H](CCSC)C(=O)N[C@@H](Cc4c[nH]c5ccccc45)C(=O)N[C@@H]([C@@H](C)O)C(=O)N3)NC2=O)C(=O)N[C@@H](CCCCN)C(=O)N[C@@H](CC(C)C)C(=O)N[C@@H](Cc2c[nH]c3ccccc23)C(=O)N1)C(N)=O [compound 128]	4
CC[C@H](C)[C@H](NC(=O)[C@H](CC(C)C)NC(=O)[C@H](CCCCN)NC(=O)[C@H](CCCNC(=N)N)NC(=O)[C@@H]1CSSC[C@@H]2NC(=O)[C@H](C)NC(=O)[C@H](CCCNC(=N)N)NC(=O)[C@H](CCCCN)NC(=O)[C@H](CO)NC(=O)[C@H](CC(=O)O)NC(=O)[C@@H]3CSSC[C@H](NC(=O)[C@H](CCC(=O)O)NC(=O)[C@H](CC(C)C)NC(=O)CNC(=O)[C@H](CCC(=O)O)NC(=O)[C@H](CSSC[C@H](NC(=O)[C@@H](N)Cc4ccc(O)cc4)C(=O)N[C@@H](CCC(N)=O)C(=O)N[C@@H](CCCCN)C(=O)N[C@@H](Cc4c[nH]c5ccccc45)C(=O)N[C@@H](CCSC)C(=O)N[C@@H](Cc4c[nH]c5ccccc45)C(=O)N[C@@H]([C@@H](C)O)C(=O)N3)NC2=O)C(=O)N[C@@H](CCCCN)C(=O)N[C@@H](CC(C)C)C(=O)N[C@@H](Cc2c[nH]c3ccccc23)C(=O)N1)C(N)=O [compound 132]	12

same assay, conditions: ratio of IonWorks Quattro IC50 values; Table 8

Compound	Nav1.4/Nav1.7
CC[C@H](C)[C@H](NC(=O)[C@H](Cc1ccc(O)cc1)NC(=O)[C@H](CCCCN)NC(=O)[C@H](CCCNC(=N)N)NC(=O)[C@@H]1CSSC[C@@H]2NC(=O)[C@H](C)NC(=O)[C@H](CCCNC(=N)N)NC(=O)[C@H](CCCCN)NC(=O)[C@H](CO)NC(=O)[C@H](CC(=O)O)NC(=O)[C@@H]3CSSC[C@H](NC(=O)[C@H](CCC(=O)O)NC(=O)[C@H](CC(C)C)NC(=O)CNC(=O)[C@H](CCC(=O)O)NC(=O)[C@H](CSSC[C@H](NC(=O)[C@@H](N)Cc4ccc(O)cc4)C(=O)N[C@@H](CCC(N)=O)C(=O)N[C@@H](CCCCN)C(=O)N[C@@H](Cc4c[nH]c5ccccc45)C(=O)N[C@@H](CCSC)C(=O)N[C@@H](CC(N)=O)C(=O)N[C@@H]([C@@H](C)O)C(=O)N3)NC2=O)C(=O)N[C@@H](CCCCN)C(=O)N[C@@H](CC(C)C)C(=O)N[C@@H](Cc2c[nH]c3ccccc23)C(=O)N1)C(N)=O [compound 215]	1
CC[C@H](C)[C@H](NC(=O)[C@H](Cc1ccc(O)cc1)NC(=O)[C@H](CCCCN)NC(=O)[C@H](CCCNC(=N)N)NC(=O)[C@@H]1CSSC[C@@H]2NC(=O)[C@H](C)NC(=O)[C@H](CCCNC(=N)N)NC(=O)[C@H](CCCCN)NC(=O)[C@H](CO)NC(=O)[C@H](CC(=O)O)NC(=O)[C@@H]3CSSC[C@H](NC(=O)[C@H](CCCNC(=N)N)NC(=O)[C@H](CC(C)C)NC(=O)CNC(=O)[C@H](CCC(=O)O)NC(=O)[C@H](CSSC[C@H](NC(=O)[C@@H](N)CCC(=O)O)C(=O)N[C@@H](CCC(N)=O)C(=O)N[C@@H](CCCCN)C(=O)N[C@@H](Cc4c[nH]c5ccccc45)C(=O)N[C@@H](CCSC)C(=O)N[C@@H](Cc4c[nH]c5ccccc45)C(=O)N[C@@H]([C@@H](C)O)C(=O)N3)NC2=O)C(=O)N[C@@H](CCCCN)C(=O)N[C@@H](CC(C)C)C(=O)N[C@@H](Cc2c[nH]c3ccccc23)C(=O)N1)C(N)=O [compound 278]	16

target: T1, hNav1.7; assay: cell-based; format: cell-based; settings: ratio of PX tonic IC50 values; Table 11

Compound	Nav1.4/Nav1.7	Nav1.5/Nav1.7
CC[C@H](C)[C@H](NC(=O)[C@@H](NC(=O)[C@H](CCCCN)NC(=O)[C@H](CCCNC(=N)N)NC(=O)[C@@H]1CSSC[C@@H]2NC(=O)[C@H](C)NC(=O)[C@H](CCCNC(=N)N)NC(=O)[C@H](CCCCN)NC(=O)[C@H](CO)NC(=O)[C@H](CC(=O)O)NC(=O)[C@@H]3CSSC[C@H](NC(=O)[C@H](CC(=O)O)NC(=O)[C@H](CC(C)C)NC(=O)CNC(=O)[C@H](CCC(=O)O)NC(=O)[C@H](CSSC[C@H](NC(=O)[C@@H](N)Cc4ccc(O)cc4)C(=O)N[C@@H](CCC(N)=O)C(=O)N[C@@H](CCCCN)C(=O)N[C@@H](Cc4c[nH]c5ccccc45)C(=O)N[C@@H](CCSC)C(=O)N[C@@H](Cc4c[nH]c5ccccc45)C(=O)N[C@@H]([C@@H](C)O)C(=O)N3)NC2=O)C(=O)N[C@@H](CCCCN)C(=O)N[C@@H](CC(C)C)C(=O)N[C@@H](Cc2c[nH]c3ccccc23)C(=O)N1)[C@@H](C)CC)C(N)=O [compound 115]	10	4
CC[C@H](C)[C@H](NC(=O)[C@@H](NC(=O)[C@H](CCCCN)NC(=O)[C@H](CCCNC(=N)N)NC(=O)[C@@H]1CSSC[C@@H]2NC(=O)[C@H](C)NC(=O)[C@H](CCCNC(=N)N)NC(=O)[C@H](CCCCN)NC(=O)[C@H](CO)NC(=O)[C@H](CC(=O)O)NC(=O)[C@@H]3CSSC[C@H](NC(=O)CNC(=O)[C@H](CC(C)C)NC(=O)CNC(=O)[C@H](CCC(=O)O)NC(=O)[C@H](CSSC[C@H](NC(=O)[C@@H](N)Cc4ccc(O)cc4)C(=O)N[C@@H](CCC(N)=O)C(=O)N[C@@H](CCCCN)C(=O)N[C@@H](Cc4c[nH]c5ccccc45)C(=O)N[C@@H](CCSC)C(=O)N[C@@H](Cc4c[nH]c5ccccc45)C(=O)N[C@@H]([C@@H](C)O)C(=O)N3)NC2=O)C(=O)N[C@@H](CCCCN)C(=O)N[C@@H](CC(C)C)C(=O)N[C@@H](Cc2c[nH]c3ccccc23)C(=O)N1)[C@@H](C)CC)C(N)=O [compound 121]	25	1808
